Data from PMC6335420, “The cell cycle regulator GpsB functions as cytosolic adaptor for multiple cell wall enzymes” (Nature Communications, 2019).
Where two headings read alike, the source gives them in different places. Residues, ends and D or L forms follow the SMILES beside them. *: point of attachment. X1 = CN(C)c1ccc2c(-c3ccc(N4C(=O)CC(*)C4=O)cc3C(=O)[O-])c3ccc(=[N+](C)C)cc-3oc2c1

Columns and labels:
BsGpsB1-68 = biological target: T1, BsGpsB1-68 (Bacillus subtilis, UniProt P0CI74); assay type: binding; details: FP; for reduction in affinity for BsGpsB1-68: relative to wild-type peptide
T1 construct: His6 (N, cleaved yes); made in house; host or cells: E. coli BL21(DE3)
T1 sequence (P0CI74 1-68): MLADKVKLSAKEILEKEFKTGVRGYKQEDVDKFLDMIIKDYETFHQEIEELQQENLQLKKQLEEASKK
From the text: 75 the BsGpsB5-64:BsPBP11-17 complex.

[1] = Circular dichroism of PBP peptides (helicity); assay type: physicochemical; details: for helical residues corresponding to helical content / α-helical content: CD, 222 nm, 4 °C, 20 mM sodium phosphate pH 7.3, 25 μM peptide; for α-helical content: average of at least four measurements
Procedure: CD spectra were recorded on a JASCO J-810 spectropolarimeter with a PTC-4235 Peltier temperature controller using 1 mm path length quartz cuvettes. For full wavelength scans a scan speed of 10 nm^−1min^−1 and a response time of 4 s were used, the final spectra were the average of at least four measurements. BsPBP1_1-32 CD spectra were recorded at 4 °C in a buffer of 20 mM sodium phosphate, pH 7.3 at a peptide concentration of 25 μM. Peptide helical contents were estimated from molar ellipticities at 222 nm using the equation helix = [θ]222 nm / (39,500(1–2.57/n))[78] where n is the number of residues in the peptide. LmPBPA1_1-15 CD spectra were analysed at 40 μM in 20 mM sodium phosphate buffer, pH 7.8, for samples containing 0, 40 and 60% trifluoroethanol (TFE). For samples containing 80% TFE, 5 mM sodium phosphate buffer, pH 7.8, was used. The CD spectra of BsGpsB1-68 proteins were measured at a concentration of 4.5 μM in a buffer of 20 mM sodium phosphate (pH 7.8) 150 mM NaCl. For thermal melt experiments, a response time of 8 s and scan rate of 1 °C^−1min^−1 were used. All thermal melts were reversible as CD spectra recorded before and after the melts in the wavelength range 200–240 nm could be superimposed.

| SMILES | reduction in affinity for BsGpsB1-68 (BsGpsB1-68) | helical residues corresponding to helical content [1] | α-helical content [1] [%] | further results |
| --- | --- | --- | --- | --- |
| CSCC[C@H](NC(=O)[C@H](CO)NC(=O)CN)C(=O)N[C@@H](C)C(=O)N[C@@H](CC(=O)O)C(=O)N[C@@H](CCC(N)=O)C(=O)N[C@@H](Cc1ccccc1)C(=O)N[C@@H](CC(N)=O)C(=O)N[C@@H](CO)C(=O)N[C@@H](CCCNC(=N)N)C(=O)N[C@@H](CCC(=O)O)C(=O)N[C@@H](C)C(=O)N[C@@H](CCCNC(=N)N)C(=O)N[C@@H](CCCNC(=N)N)C(=O)N[C@@H](CCCCN)C(=O)N[C@@H](C)C(=O)N[C@@H](CC(N)=O)C(=O)N[C@@H](CSC1CC(=O)N(c2ccc(-c3c4ccc(=[N+](C)C)cc-4oc4cc(N(C)C)ccc34)c(C(=O)[O-])c2)C1=O)C(=O)N[C@@H](CCCCN)C(=O)N[C@@H](CO)C(=O)N[C@@H](CO)C(=O)N1CCC[C@H]1C(=O)N[C@@H](CO)C(=O)N1CCC[C@H]1C(=O)N[C@@H](CCCCN)C(=O)N[C@@H](CCCCN)C(=O)NCC(=O)N[C@@H](CCCCN)C(=O)N[C@@H](CCCCN)C(=O)N[C@@H](C)C(=O)N[C@@H](CCCCN)C(=O)N[C@@H](CCCCN)C(=O)NCC(=O)NCC(=O)O (stereo partly drawn) [TAMRA-BsPBP11-32 Arg28Ala] (H-GSMADQFNSREARRKANC(X1)KSSPSPKKGKKAKKGG-OH) |  |  |  | binding to BsGpsB1-68 (in words) (BsGpsB1-68): no effect on binding |
| CSCC[C@H](NC(=O)[C@H](CO)NC(=O)CN)C(=O)N[C@@H](C)C(=O)N[C@@H](CC(=O)O)C(=O)N[C@@H](CCC(N)=O)C(=O)N[C@@H](Cc1ccccc1)C(=O)N[C@@H](CC(N)=O)C(=O)N[C@@H](CO)C(=O)N[C@@H](CCCCN)C(=O)N[C@@H](CCC(=O)O)C(=O)N[C@@H](C)C(=O)N[C@@H](CCCNC(=N)N)C(=O)N[C@@H](CCCNC(=N)N)C(=O)N[C@@H](CCCCN)C(=O)N[C@@H](C)C(=O)N[C@@H](CC(N)=O)C(=O)N[C@@H](CSC1CC(=O)N(c2ccc(-c3c4ccc(=[N+](C)C)cc-4oc4cc(N(C)C)ccc34)c(C(=O)[O-])c2)C1=O)C(=O)N[C@@H](CCCCN)C(=O)N[C@@H](CO)C(=O)N[C@@H](CO)C(=O)N1CCC[C@H]1C(=O)N[C@@H](CO)C(=O)N1CCC[C@H]1C(=O)N[C@@H](CCCCN)C(=O)N[C@@H](CCCCN)C(=O)NCC(=O)N[C@@H](CCCCN)C(=O)N[C@@H](CCCCN)C(=O)N[C@@H](CCCNC(=N)N)C(=O)N[C@@H](CCCCN)C(=O)N[C@@H](CCCCN)C(=O)NCC(=O)NCC(=O)O (stereo partly drawn) [TAMRA-BsPBP11-32 Arg8Lys] (H-GSMADQFNSKEARRKANC(X1)KSSPSPKKGKKRKKGG-OH) | at least 5 fold |  |  |  |
| CSCC[C@H](NC(=O)[C@H](CO)NC(=O)CN)C(=O)N[C@@H](C)C(=O)N[C@@H](CC(=O)O)C(=O)N[C@@H](CCC(N)=O)C(=O)N[C@@H](Cc1ccccc1)C(=O)N[C@@H](CC(N)=O)C(=O)N[C@@H](C)C(=O)N[C@@H](CCCNC(=N)N)C(=O)N[C@@H](CCC(=O)O)C(=O)N[C@@H](C)C(=O)N[C@@H](CCCNC(=N)N)C(=O)N[C@@H](CCCNC(=N)N)C(=O)N[C@@H](CCCCN)C(=O)N[C@@H](C)C(=O)N[C@@H](CC(N)=O)C(=O)N[C@@H](CSC1CC(=O)N(c2ccc(-c3c4ccc(=[N+](C)C)cc-4oc4cc(N(C)C)ccc34)c(C(=O)[O-])c2)C1=O)C(=O)N[C@@H](CCCCN)C(=O)N[C@@H](CO)C(=O)N[C@@H](CO)C(=O)N1CCC[C@H]1C(=O)N[C@@H](CO)C(=O)N1CCC[C@H]1C(=O)N[C@@H](CCCCN)C(=O)N[C@@H](CCCCN)C(=O)NCC(=O)N[C@@H](CCCCN)C(=O)N[C@@H](CCCCN)C(=O)N[C@@H](CCCNC(=N)N)C(=O)N[C@@H](CCCCN)C(=O)N[C@@H](CCCCN)C(=O)NCC(=O)NCC(=O)O (stereo partly drawn) [TAMRA-BsPBP11-32 Ser7Ala] (H-GSMADQFNAREARRKANC(X1)KSSPSPKKGKKRKKGG-OH) |  | ~ 6 residues | 19 | reduction in affinity for BsGpsB1-68 (BsGpsB1-68; listed as BsPBP1_1-32^Ser7Ala): at least 6 fold; reduction in affinity for BsGpsB1-68 (BsGpsB1-68; listed as BsPBP11-32Ser7Ala): > 5 fold |
| CSCC[C@H](NC(=O)[C@H](CO)NC(=O)CN)C(=O)N[C@@H](C)C(=O)N[C@@H](CC(=O)O)C(=O)N[C@@H](CCC(N)=O)C(=O)N[C@@H](Cc1ccccc1)C(=O)N[C@@H](CC(N)=O)C(=O)N[C@@H](CO)C(=O)N[C@@H](CCCNC(=N)N)C(=O)N[C@@H](CCC(=O)O)C(=O)N[C@@H](C)C(=O)N[C@@H](C)C(=O)N[C@@H](CCCNC(=N)N)C(=O)N[C@@H](CCCCN)C(=O)N[C@@H](C)C(=O)N[C@@H](CC(N)=O)C(=O)N[C@@H](CSC1CC(=O)N(c2ccc(-c3c4ccc(=[N+](C)C)cc-4oc4cc(N(C)C)ccc34)c(C(=O)[O-])c2)C1=O)C(=O)N[C@@H](CCCCN)C(=O)N[C@@H](CO)C(=O)N[C@@H](CO)C(=O)N1CCC[C@H]1C(=O)N[C@@H](CO)C(=O)N1CCC[C@H]1C(=O)N[C@@H](CCCCN)C(=O)N[C@@H](CCCCN)C(=O)NCC(=O)N[C@@H](CCCCN)C(=O)N[C@@H](CCCCN)C(=O)N[C@@H](CCCNC(=N)N)C(=O)N[C@@H](CCCCN)C(=O)N[C@@H](CCCCN)C(=O)NCC(=O)NCC(=O)O (stereo partly drawn) [TAMRA-BsPBP11-32 Arg11Ala] (H-GSMADQFNSREAARKANC(X1)KSSPSPKKGKKRKKGG-OH) | at least 5 fold |  |  |  |
| CSCC[C@H](NC(=O)[C@H](CO)NC(=O)CN)C(=O)N[C@@H](C)C(=O)N[C@@H](CC(=O)O)C(=O)N[C@@H](CCC(N)=O)C(=O)N[C@@H](Cc1ccccc1)C(=O)N[C@@H](CC(N)=O)C(=O)N[C@@H](CO)C(=O)N[C@@H](CCCNC(=N)N)C(=O)N[C@@H](CCC(=O)O)C(=O)N1CCC[C@H]1C(=O)N[C@@H](CCCNC(=N)N)C(=O)N[C@@H](CCCNC(=N)N)C(=O)N[C@@H](CCCCN)C(=O)N[C@@H](C)C(=O)N[C@@H](CC(N)=O)C(=O)N[C@@H](CSC1CC(=O)N(c2ccc(-c3c4ccc(=[N+](C)C)cc-4oc4cc(N(C)C)ccc34)c(C(=O)[O-])c2)C1=O)C(=O)N[C@@H](CCCCN)C(=O)N[C@@H](CO)C(=O)N[C@@H](CO)C(=O)N1CCC[C@H]1C(=O)N[C@@H](CO)C(=O)N1CCC[C@H]1C(=O)N[C@@H](CCCCN)C(=O)N[C@@H](CCCCN)C(=O)NCC(=O)N[C@@H](CCCCN)C(=O)N[C@@H](CCCCN)C(=O)N[C@@H](CCCNC(=N)N)C(=O)N[C@@H](CCCCN)C(=O)N[C@@H](CCCCN)C(=O)NCC(=O)NCC(=O)O (stereo partly drawn) [TAMRA-BsPBP11-32 Ala10Pro] (H-GSMADQFNSREPRRKANC(X1)KSSPSPKKGKKRKKGG-OH) |  | one | 2 | secondary structure by CD (in words) ([1]; LmPBPA1 peptides 40 μM, 20 mM sodium phosphate pH 7.8, TFE 0-80% (5 mM phosphate at 80%), BsPBP1_1-32 peptides 25 μM, pH 7.3, 4 °C): mostly random coil; reduction in affinity for BsGpsB1-68 (BsGpsB1-68; listed as BsPBP1_1-32^Ala10Pro): at least 6 fold; reduction in affinity for BsGpsB1-68 (BsGpsB1-68; listed as BsPBP11-32Ala10Pro): > 8 fold |
